Results from patent publication US10632127B2, “Targeted notch pathway inhibitors” (Hoffmann-La Roche Inc., priority 2015, dated 2020).

Assays:
[1] = target: Notch signal transduction pathway; assay: In vitro Notch signal transduction pathway activity assay (DR215/F2 luciferase reporter); format: cell-based, human; settings: for IC50 for blockade of the Notch pathway, range in words: DR215/F2 cell reporter assay; for IC50: Homo sapiens, 215/F2 reporter cell line, 19 h, mean of at least 3 experiments
Procedure: The compounds were dissolved in dimethyl sulfoxide (DMSO) at 10 mM stock solution, aliquoted and stored at −4° C. until use, then diluted in PBS or cell culture medium. In the experimental settings, controls containing increasing concentrations of DMSO, corresponding to the amount of DMSO of the diluted compounds were always included. For in vivo experiments, the compounds were dissolved in 0.9% NaCl, incubated 30 min at 40° C. and sonicated for 5 min.
The requirement of proteolytic activation of the prodrugs to inhibit Notch cleavage by the γ-secretase, was investigated using a reporter assay (Table 3). The DR215/F2 cell line expresses a reporter construct designed to monitor the activity of the Notch signal transduction pathway. The DR215/F2 cell line 39 carries two transgenes: the firefly luciferase reporter gene expressed under the control of the Gal4 promoter and the human Notch1 activator gene fused with the yeast Gal4 transcription factor. This assay confirmed that the prodrugs were able to inhibit γ-secretase and the activation of the Notch pathway. The DR215/F2 cell reporter assay was also used to determine the IC50 for blockade of the Notch pathway by all the compounds designed and prepared.
The values were determined using the 215/F2 reporter cell line for Notch activation by the γ-secretase. All values are the mean of at least 3 experiments.
The preparation and characterization of rat brain-derived EC219 endothelial cells have been described in Juillerat-Jeanneret, L. et al. In Vitro Cell. Dev. Biol. 1992, 28A, 537-543. These cells express high levels of APA and γ-GT activities and can be used for determining kinetics in living cells, and were chosen as APA- and γ-GT-positive representative cell models. EC219 cells were grown in DMEM medium containing 1 g/l glucose, 10% heat-inactivated fetal calf serum (FCS, EuroClone, UK) supplemented with 100 U/mL penicillin and 100 μg/mL streptomycin (P/S) on uncoated cell culture plastic ware. The HEK293 and HK2 human kidney cells are available from the ATCC (American Tissue Culture Collection, Manassas, Va., USA). HEK293 cells were grown on uncoated cell culture plastic ware in Iscove modified Dulbecco medium (IMDM, Life Technologies) containing 10% FCS and P/S. HK2 cells were grown on uncoated cell culture plastic ware in DMEM/F-12 GlutaMAX medium (Gibco) containing 5% FCS, P/S, 1% ITS (1.0 mg/ml bovine insulin, 0.55 mg/ml human transferrin and 0.5 μg/ml sodium selenite, Sigma-Aldrich) and 5 ng/ml hydrocortisone. The human HEK293-derived DR215/F2 embryonic kidney cell line, stably transfected with pFR Luc and APP-Notch Gal (plasmid DR215) as described in WO 2006/061136 A2 and Brockhaus, M. Neuroreport 1998 9, 1481-1486, were maintained using IMDM with 10% FCS supplemented with P/S and kept under double-selection with 150 μg/ml G-418 and 50 μg/ml hygromycin B on coated (1:100 Poly-L-lysine) cell culture plastic ware. In this assay, the Notch-Gal4 protein is bound to the cell membrane via its trans-membrane domain. The Notch intracellular domain is released by proteolytic cleavage mediated by the γ-secretase and moves to the cell nucleus where it activates the reporter luciferase gene transcript. Inhibition of γ-secretase thus decreases luciferase activity. Briefly, cultures were grown in 96-well microplates to 80% confluence; the cells were then washed in PBS and exposed to decreasing concentrations of the γ-secretase-inhibitor analogues in complete IMDM culture medium without red phenol at 37° C. for 19 h. Then 75 μl of supernatant from each well was removed and the luciferase activity was determined by adding 25 μl of Steady-Glo luciferase assay reagent (Promega).

EC219 cells = assay: Extracellular release of the γ-secretase inhibitor from prodrugs by EC219 endothelial cells; format: in vitro ADME, rat; settings: HEK293, 215/F2, HK2 and EC219 cells, 20 μM in PBS, 19 h
Procedure: FIG. 2A. Extracellular release of amine-SecrI (11a) metabolites for α-Glu- and γ-Glu-secretase inhibitor prodrugs. The prodrugs were added to the cells for 19 h, then the supernatants were harvested and analyzed for SecrI (8), amine-SecrI (11a), the prodrugs 13a, 13b, 15a, 15b and (for 13a, 15a) also the correponding deacetylated metabolites.
Cpd added: 20 μM in PBS, 19 h incubation. SecrI (8) is stable when added to cells for 19 h; free SecrI (8) was never detected from any prodrug.
The preparation and characterization of rat brain-derived EC219 endothelial cells have been described in Juillerat-Jeanneret, L. et al. In Vitro Cell. Dev. Biol. 1992, 28A, 537-543. These cells express high levels of APA and γ-GT activities and can be used for determining kinetics in living cells, and were chosen as APA- and γ-GT-positive representative cell models. EC219 cells were grown in DMEM medium containing 1 g/l glucose, 10% heat-inactivated fetal calf serum (FCS, EuroClone, UK) supplemented with 100 U/mL penicillin and 100 μg/mL streptomycin (P/S) on uncoated cell culture plastic ware. The HEK293 and HK2 human kidney cells are available from the ATCC (American Tissue Culture Collection, Manassas, Va., USA). HEK293 cells were grown on uncoated cell culture plastic ware in Iscove modified Dulbecco medium (IMDM, Life Technologies) containing 10% FCS and P/S. HK2 cells were grown on uncoated cell culture plastic ware in DMEM/F-12 GlutaMAX medium (Gibco) containing 5% FCS, P/S, 1% ITS (1.0 mg/ml bovine insulin, 0.55 mg/ml human transferrin and 0.5 μg/ml sodium selenite, Sigma-Aldrich) and 5 ng/ml hydrocortisone. […] Then 75 μl of supernatant from each well was removed and the luciferase activity was determined by adding 25 μl of Steady-Glo luciferase assay reagent (Promega).
A first screen of the different γ-secretase prodrugs was performed in vitro to determine the cleavage rate of each compound and ex-vivo in mouse kidney tissues. Extracellular release of the γ-secretase inhibitor from prodrugs by human kidney cells (HEK293, HEK293-derived Notch-reporter 215/F2 cells28,39 and HK2 cells) as well as the rat brain-derived EC219 endothelial cells which express very high levels of APA and γ-GT activities were evaluated for liberating active inhibitors SecrI (8) or amine-SecrI (11a) (FIG. 2A).
All samples were analyzed using protein precipitation followed by LC-MS/MS analysis. […] One μL of the supernatant was analyzed by LC/MS. […]

Row | Structure (SMILES) | IC50 for blockade of the Notch pathway, range in words [1] | IC50 [1] [nM] | stability when added to cells (EC219 cells) | hydrolysis by γ-GT (EC219 cells) | substrate for APA (EC219 cells)
1 | C[C@H]1Oc2ccc(F)cc2N(CCO)C(=O)[C@H]1NC(=O)[C@@](C)(O)C(=O)NCC(F)(F)C(F)(F)F [Compound 8, N-[(6R,7S)-2-Fluoro-9-(2-hydroxy-ethyl)-6-methyl-8-oxo-6,7,8,9-tetrahydro-5-oxa-9-aza-benzocyclohepten-7-yl]-2-(S)-hydroxy-2-methyl-N′-(2,2,3,3,3-pentafluoro-propyl)-malonamide] | low nanomolar range | 4.4 | stable |  | 
2 | C[C@H]1Oc2ccc(F)cc2N(CCOC(=O)NCCN)C(=O)[C@H]1NC(=O)[C@@](C)(O)C(=O)NCC(F)(F)C(F)(F)F.Cl [Compound 11a, 2-((2R,3S)-7-Fluoro-3-((S)-2-hydroxy-2-methyl-3-oxo-3-(2,2,3,3,3-pentafluoropropylamino)propanamido)-2-methyl-4-oxo-3,4-dihydrobenzo[b][1,4]oxazepin-5(2H)-yl)ethyl 2-aminoethylcarbamate hydrochloride] | low nanomolar range | 45.6 |  |  | 
3 | CC(=O)N[C@@H](CCC(=O)NCCNC(=O)OCCN1C(=O)[C@@H](NC(=O)[C@@](C)(O)C(=O)NCC(F)(F)C(F)(F)F)[C@@H](C)Oc2ccc(F)cc21)C(=O)O [Compound 13a, (S)-2-acetamido-5-(2-((2-((2R,3S)-7-fluoro-3-((S)-2-hydroxy-2-methyl-3-oxo-3-(2,2,3,3,3-pentafluoropropylamino)propanamido)-2-methyl-4-oxo-3,4-dihydrobenzo[b][1,4]oxazepin-5(2H)-yl)ethoxy)carbonylamino)ethylamino)-5-oxopentanoic acid] | μM range | 2880 |  | not hydrolyzed by γ-GT | 
4 | CC(=O)N[C@@H](CCC(=O)O)C(=O)NCCNC(=O)OCCN1C(=O)[C@@H](NC(=O)[C@@](C)(O)C(=O)NCC(F)(F)C(F)(F)F)[C@@H](C)Oc2ccc(F)cc21 [Compound 15a, (S)-4-acetamido-5-(2-((2-((2R,3S)-7-fluoro-3-((S)-2-hydroxy-2-methyl-3-oxo-3-(2,2,3,3,3-pentafluoropropylamino)propanamido)-2-methyl-4-oxo-3,4-dihydrobenzo[b][1,4]oxazepin-5(2H)-yl)ethoxy)carbonylamino)ethylamino)-5-oxopentanoic acid] | high nM range | 625 |  |  | not a substrate for this enzyme
